Test results taken from ChEMBL document CHEMBL1909046, “DrugMatrix in vitro pharmacology data”.

Legend:
[1] = biological target: 5-hydroxytryptamine receptor 2B (Homo sapiens, UniProt P41595); type: cell membranes, CHO-K1, Membrane; settings: for Ki: read-out: Ki; on all read-outs here: in other assays of this panel Not Active means under 50% inhibition at 10 µM
[2] = biological target: T1, Angiotensin-converting enzyme (Oryctolagus cuniculus, UniProt P12822); type: tissue-based, Lung;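 further: enzymatic inhibition of angiotensin-converting enzyme measured with FAPGG as the substrate; in other assays of this panel Not Active means under 50% inhibition at 10 µM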
T1 sequence (P12822 whole entry): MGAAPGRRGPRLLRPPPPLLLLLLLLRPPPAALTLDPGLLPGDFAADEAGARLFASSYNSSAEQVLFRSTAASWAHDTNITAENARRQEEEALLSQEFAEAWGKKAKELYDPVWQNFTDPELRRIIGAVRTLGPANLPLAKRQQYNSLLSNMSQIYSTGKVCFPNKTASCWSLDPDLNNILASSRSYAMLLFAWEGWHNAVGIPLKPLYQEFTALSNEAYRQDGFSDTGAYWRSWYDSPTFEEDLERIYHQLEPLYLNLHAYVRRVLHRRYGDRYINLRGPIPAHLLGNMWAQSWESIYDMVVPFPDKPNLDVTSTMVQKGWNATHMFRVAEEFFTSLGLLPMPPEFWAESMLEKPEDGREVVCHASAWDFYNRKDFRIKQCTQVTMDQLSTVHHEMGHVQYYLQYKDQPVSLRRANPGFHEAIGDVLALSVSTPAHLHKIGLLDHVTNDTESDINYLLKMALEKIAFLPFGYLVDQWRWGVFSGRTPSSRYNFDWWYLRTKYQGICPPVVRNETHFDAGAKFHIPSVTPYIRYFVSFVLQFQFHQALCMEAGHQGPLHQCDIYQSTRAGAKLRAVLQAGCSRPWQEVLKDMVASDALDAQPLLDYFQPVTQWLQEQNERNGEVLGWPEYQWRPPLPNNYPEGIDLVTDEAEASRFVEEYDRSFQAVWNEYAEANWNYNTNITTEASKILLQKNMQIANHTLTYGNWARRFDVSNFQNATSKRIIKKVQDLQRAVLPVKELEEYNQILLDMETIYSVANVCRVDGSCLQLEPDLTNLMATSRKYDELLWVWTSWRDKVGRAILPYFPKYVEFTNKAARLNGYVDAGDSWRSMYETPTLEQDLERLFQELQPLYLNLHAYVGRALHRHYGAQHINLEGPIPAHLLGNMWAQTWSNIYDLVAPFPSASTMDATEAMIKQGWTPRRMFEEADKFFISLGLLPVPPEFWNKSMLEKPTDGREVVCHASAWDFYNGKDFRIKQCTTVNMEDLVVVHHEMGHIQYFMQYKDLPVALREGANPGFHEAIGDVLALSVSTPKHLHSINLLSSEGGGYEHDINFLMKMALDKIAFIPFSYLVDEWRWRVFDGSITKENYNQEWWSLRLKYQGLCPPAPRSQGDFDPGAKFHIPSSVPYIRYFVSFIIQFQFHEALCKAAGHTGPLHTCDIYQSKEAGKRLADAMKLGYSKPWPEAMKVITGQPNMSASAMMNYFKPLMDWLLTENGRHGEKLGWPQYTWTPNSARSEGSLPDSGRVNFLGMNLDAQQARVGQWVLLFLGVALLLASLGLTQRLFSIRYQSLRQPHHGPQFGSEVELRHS

[3] = biological target: T2, 3-hydroxy-3-methylglutaryl-coenzyme A reductase (Homo sapiens, UniProt P04035); set-up: species or system Escherichia coli;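 further: enzyme inhibition assay of HMG-CoA reductase using radiolabeled [14C]HMG-CoA as substrate; in other assays of this panel Not Active means under 50% inhibition at 10 µM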
T2 sequence (P04035 whole entry): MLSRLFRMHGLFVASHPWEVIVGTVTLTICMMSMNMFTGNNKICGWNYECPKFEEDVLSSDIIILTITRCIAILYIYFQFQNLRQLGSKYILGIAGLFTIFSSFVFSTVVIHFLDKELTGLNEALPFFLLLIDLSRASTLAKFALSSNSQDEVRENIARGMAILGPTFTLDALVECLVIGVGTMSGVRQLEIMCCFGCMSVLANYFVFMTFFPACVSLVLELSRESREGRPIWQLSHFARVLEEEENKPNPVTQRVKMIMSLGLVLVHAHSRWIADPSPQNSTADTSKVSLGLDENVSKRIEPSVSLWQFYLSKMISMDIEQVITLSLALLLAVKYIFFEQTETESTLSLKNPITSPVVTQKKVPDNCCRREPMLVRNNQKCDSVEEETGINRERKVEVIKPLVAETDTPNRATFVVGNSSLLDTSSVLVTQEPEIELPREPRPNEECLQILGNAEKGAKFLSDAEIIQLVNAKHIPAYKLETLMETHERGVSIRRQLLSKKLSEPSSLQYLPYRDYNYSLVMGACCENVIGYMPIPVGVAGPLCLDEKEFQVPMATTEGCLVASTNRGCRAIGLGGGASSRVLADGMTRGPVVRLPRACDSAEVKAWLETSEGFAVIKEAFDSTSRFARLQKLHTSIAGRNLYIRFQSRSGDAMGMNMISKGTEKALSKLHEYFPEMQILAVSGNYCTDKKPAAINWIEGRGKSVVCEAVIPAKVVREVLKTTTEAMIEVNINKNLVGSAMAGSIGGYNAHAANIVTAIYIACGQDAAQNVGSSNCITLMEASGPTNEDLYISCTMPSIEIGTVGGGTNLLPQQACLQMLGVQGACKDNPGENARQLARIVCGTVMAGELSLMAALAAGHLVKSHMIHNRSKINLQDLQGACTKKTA

[4] = biological target: Matrix metalloproteinase-9 (Homo sapiens, UniProt P14780); test: biochemical; type: cell-based;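 further: inhibition of isolated MMP-9 enzyme activity toward a synthetic peptide substrate, from the DrugMatrix protease screening panel; in other assays of this panel Not Active means under 50% inhibition at 10 µM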
Endothelin-1 receptor = biological target: T3, Endothelin-1 receptor (Homo sapiens, UniProt P25101); type: cell membranes, CHO-K1, Membrane; settings: cho-k1; further: in other assays of this panel Not Active means under 50% inhibition at 10 µM
T3 sequence (P25101 whole entry): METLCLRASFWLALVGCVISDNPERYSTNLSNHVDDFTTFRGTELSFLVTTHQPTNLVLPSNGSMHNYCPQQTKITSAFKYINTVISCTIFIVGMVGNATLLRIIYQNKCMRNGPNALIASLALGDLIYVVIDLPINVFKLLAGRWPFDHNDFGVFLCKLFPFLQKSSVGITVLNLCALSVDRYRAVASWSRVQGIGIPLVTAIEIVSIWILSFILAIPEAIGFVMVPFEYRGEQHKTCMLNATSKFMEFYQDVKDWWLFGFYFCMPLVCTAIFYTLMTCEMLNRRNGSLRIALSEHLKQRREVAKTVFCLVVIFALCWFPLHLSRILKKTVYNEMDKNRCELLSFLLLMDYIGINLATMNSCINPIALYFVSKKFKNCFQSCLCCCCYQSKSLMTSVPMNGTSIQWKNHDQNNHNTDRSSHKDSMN

[5] = biological target: Kappa-type opioid receptor (Homo sapiens, UniProt P41145); test: DRUGMATRIX: Opiate kappa (OP2, KOP) radioligand binding (ligand: [3H] Diprenorphine); type: cell membranes, HEK293, Membrane; settings: Not Active = under 50% inhibition at 10 µM; for IC50: hek293
Cytochrome P450 2C19 = Cytochrome P450 2C19 (Homo sapiens, UniProt P33261); settings: bti-tn-5b1-4; further: in other assays of this panel Not Active means under 50% inhibition at 10 µM
Chain of Cytochrome P450 2C19 (P33261 whole entry): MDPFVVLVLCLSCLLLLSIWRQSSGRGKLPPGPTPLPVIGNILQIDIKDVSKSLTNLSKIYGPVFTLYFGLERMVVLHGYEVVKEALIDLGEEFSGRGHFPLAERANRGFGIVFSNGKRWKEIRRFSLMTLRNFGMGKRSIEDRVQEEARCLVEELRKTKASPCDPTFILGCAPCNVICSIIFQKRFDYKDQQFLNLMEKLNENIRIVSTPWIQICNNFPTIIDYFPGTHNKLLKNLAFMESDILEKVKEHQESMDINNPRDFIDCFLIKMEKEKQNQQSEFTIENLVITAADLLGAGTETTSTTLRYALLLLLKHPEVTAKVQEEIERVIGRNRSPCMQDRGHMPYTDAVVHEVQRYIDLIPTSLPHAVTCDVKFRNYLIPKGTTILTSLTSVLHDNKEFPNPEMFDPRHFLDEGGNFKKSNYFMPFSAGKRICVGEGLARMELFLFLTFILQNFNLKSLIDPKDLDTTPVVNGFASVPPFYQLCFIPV

Chain of Kappa-type opioid receptor (P41145 whole entry): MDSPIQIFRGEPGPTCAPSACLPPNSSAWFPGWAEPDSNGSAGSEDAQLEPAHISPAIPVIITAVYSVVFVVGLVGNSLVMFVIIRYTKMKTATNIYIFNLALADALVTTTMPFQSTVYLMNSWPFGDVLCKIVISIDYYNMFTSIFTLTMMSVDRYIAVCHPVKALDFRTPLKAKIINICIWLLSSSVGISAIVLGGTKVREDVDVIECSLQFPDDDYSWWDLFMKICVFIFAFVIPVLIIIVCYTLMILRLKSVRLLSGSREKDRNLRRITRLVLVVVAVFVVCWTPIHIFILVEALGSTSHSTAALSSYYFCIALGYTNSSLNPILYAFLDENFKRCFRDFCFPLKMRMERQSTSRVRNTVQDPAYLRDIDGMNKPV
Chain of Matrix metalloproteinase-9 (P14780 whole entry): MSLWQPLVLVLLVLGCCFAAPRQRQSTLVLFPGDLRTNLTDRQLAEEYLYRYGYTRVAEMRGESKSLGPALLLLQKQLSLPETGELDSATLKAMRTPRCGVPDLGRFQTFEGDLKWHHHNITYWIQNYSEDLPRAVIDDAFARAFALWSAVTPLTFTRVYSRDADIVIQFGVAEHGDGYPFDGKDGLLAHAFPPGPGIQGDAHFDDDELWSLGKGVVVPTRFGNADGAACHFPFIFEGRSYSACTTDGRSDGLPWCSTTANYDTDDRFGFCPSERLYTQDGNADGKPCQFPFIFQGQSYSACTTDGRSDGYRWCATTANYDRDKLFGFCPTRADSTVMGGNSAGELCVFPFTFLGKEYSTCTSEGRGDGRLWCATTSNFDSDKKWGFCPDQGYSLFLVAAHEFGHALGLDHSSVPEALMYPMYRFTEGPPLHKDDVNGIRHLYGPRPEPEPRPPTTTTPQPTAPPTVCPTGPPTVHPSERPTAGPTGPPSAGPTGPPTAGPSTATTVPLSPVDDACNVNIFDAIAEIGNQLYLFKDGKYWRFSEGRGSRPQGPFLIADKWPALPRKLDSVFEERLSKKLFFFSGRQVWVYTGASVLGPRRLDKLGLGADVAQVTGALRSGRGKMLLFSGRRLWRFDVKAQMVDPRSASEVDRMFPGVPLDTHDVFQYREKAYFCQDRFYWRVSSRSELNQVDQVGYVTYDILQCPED
Chain of 5-hydroxytryptamine receptor 2B (P41595 whole entry): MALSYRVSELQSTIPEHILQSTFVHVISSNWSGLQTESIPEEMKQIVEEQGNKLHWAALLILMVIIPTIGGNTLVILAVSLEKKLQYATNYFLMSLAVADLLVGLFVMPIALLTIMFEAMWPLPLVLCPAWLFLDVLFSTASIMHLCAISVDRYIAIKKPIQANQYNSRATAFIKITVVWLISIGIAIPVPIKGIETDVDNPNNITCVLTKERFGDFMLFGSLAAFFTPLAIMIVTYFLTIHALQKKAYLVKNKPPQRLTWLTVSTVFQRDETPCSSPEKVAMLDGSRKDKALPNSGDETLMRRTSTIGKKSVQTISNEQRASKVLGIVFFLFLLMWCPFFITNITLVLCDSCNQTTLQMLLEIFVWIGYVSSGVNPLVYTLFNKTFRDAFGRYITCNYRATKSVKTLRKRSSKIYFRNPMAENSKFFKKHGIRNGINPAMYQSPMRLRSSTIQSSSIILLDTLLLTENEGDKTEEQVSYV

Structure (SMILES)	IC50 ([1]; cho-k1)	IC50 [2]	IC50 [3]	IC50 [4]	IC50 (Endothelin-1 receptor)	IC50 [5]	IC50 (Cytochrome P450 2C19)	Ki (Cytochrome P450 2C19)	IC50 ([4]; read-out: IC50) [nM]	IC50 ([1]; read-out: IC50) [nM]	Ki [1] [nM]	Ki [5] [nM]
O=c1ncn2nc(Sc3ccc(F)cc3F)ccc2c1-c1c(Cl)cccc1Cl [NEFLAMAPIMOD]	Not Active	Not Active	Not Active	Not Active	Not Active	Not Active	Not Active	Not Active	–	–	–	–
CO[C@H]1/C=C/O[C@@]2(C)Oc3c(C)c(O)c4c(O)c(c(/C=N/N5CCN(C)CC5)c(O)c4c3C2=O)NC(=O)/C(C)=C\C=C\[C@H](C)[C@H](O)[C@@H](C)[C@@H](O)[C@@H](C)[C@H](OC(C)=O)[C@@H]1C [RIFAMPIN]	Not Active	Not Active	Not Active	Not Active	Not Active	Not Active	Not Active	Not Active	–	–	–	–
C=CCC1(C(C)CCC)C(=O)NC(=O)NC1=O (stereo not drawn) [SECOBARBITAL]	Not Active	Not Active	Not Active	–	Not Active	Not Active	Not Active	Not Active	2640	–	–	–
C[C@@H]1CN(c2c(F)c(N)c3c(=O)c(C(=O)O)cn(C4CC4)c3c2F)C[C@H](C)N1 [SPARFLOXACIN]	Not Active	Not Active	Not Active	Not Active	Not Active	Not Active	Not Active	Not Active	–	–	–	–
CSc1ccc(/C=C2/C(C)=C(CC(=O)O)c3cc(F)ccc32)cc1 [SULINDAC SULFIDE]	Not Active	Not Active	Not Active	Not Active	Not Active	Not Active	Not Active	Not Active	–	–	–	–
Nc1c2c(nc3ccccc13)CCCC2 [TACRINE]	Not Active	Not Active	Not Active	Not Active	Not Active	Not Active	Not Active	Not Active	–	–	–	–
CC/C(=C(\c1ccccc1)c1ccc(OCCN(C)C)cc1)c1ccccc1 [TAMOXIFEN]	–	Not Active	Not Active	Not Active	Not Active	–	Not Active	Not Active	–	2080	1330	6250
CC(C)N1CCN(c2ccc(OCC3COC(Cn4cncn4)(c4ccc(Cl)cc4Cl)O3)cc2)CC1 (stereo not drawn) [TERCONAZOLE]	Not Active	Not Active	Not Active	Not Active	Not Active	Not Active	Not Active	Not Active	–	–	–	–
Nc1nc2nc[nH]c2c(=S)[nH]1 [THIOGUANINE]	Not Active	Not Active	Not Active	Not Active	Not Active	Not Active	Not Active	Not Active	–	–	–	–
NC[C@H]1CC[C@H](C(=O)O)CC1 [TRANEXAMIC ACID]	Not Active	Not Active	Not Active	Not Active	Not Active	Not Active	Not Active	Not Active	–	–	–	–
CC1(C)O[C@@H]2C[C@H]3[C@@H]4CCC5=CC(=O)C=C[C@]5(C)[C@@]4(F)[C@@H](O)C[C@]3(C)[C@]2(C(=O)CO)O1 [TRIAMCINOLONE ACETONIDE]	Not Active	Not Active	Not Active	Not Active	Not Active	Not Active	Not Active	Not Active	–	–	–	–
NS(=O)(=O)c1cc2c(cc1Cl)NC(C(Cl)Cl)NS2(=O)=O (stereo not drawn) [TRICHLORMETHIAZIDE]	Not Active	Not Active	Not Active	Not Active	Not Active	Not Active	Not Active	Not Active	–	–	–	–
Cc1c(C)c2c(c(C)c1O)CCC(C)(COc1ccc(CC3SC(=O)NC3=O)cc1)O2 (stereo not drawn) [TROGLITAZONE]	–	Not Active	Not Active	Not Active	Not Active	Not Active	Not Active	Not Active	–	1310	835	–
N[C@@H]1[C@H]2CN(c3nc4c(cc3F)c(=O)c(C(=O)O)cn4-c3ccc(F)cc3F)C[C@@H]12 [TROVAFLOXACIN]	Not Active	Not Active	Not Active	Not Active	Not Active	Not Active	Not Active	Not Active	–	–	–	–
N#CC(C#N)=Cc1ccc(O)c(O)c1 [TYRPHOSTIN 23]	Not Active	Not Active	Not Active	Not Active	Not Active	Not Active	Not Active	Not Active	–	–	–	–
CC[C@]1(O)C[C@H]2CN(CCc3c([nH]c4ccccc34)[C@@](C(=O)OC)(c3cc4c(cc3OC)N(C=O)[C@H]3[C@@](O)(C(=O)OC)[C@H](OC(C)=O)[C@]5(CC)C=CCN6CC[C@]43[C@@H]65)C2)C1 [VINCRISTINE]	Not Active	Not Active	Not Active	Not Active	Not Active	Not Active	Not Active	Not Active	–	–	–	–
CCCOc1ccccc1-c1nc2nn[nH]c2c(=O)[nH]1 [ZAPRINAST]	Not Active	Not Active	Not Active	Not Active	Not Active	Not Active	Not Active	Not Active	–	–	–	–
